The results in this text go back to PMC10452110, “Indole-3-Acetamido-Polyamines as Antimicrobial Agents and Antibiotic Adjuvants” (Biomolecules, 2023).

Series [1] relates to Staphylococcus aureus (ATCC 25923). Put plainly: Intrinsic antimicrobial activity (MIC) against S. aureus. As to conditions: ATCC25923, S. aureus ATCC 25923, mean (n = 3), read-out: MIC S. a. Type of series: cell-based. On the procedure: (§1) The susceptibility of bacterial strains Staphylococcus aureus (ATCC 25923), Escherichia coli (ATCC 25922) and Pseudomonas aeruginosa (ATCC 27853) to antibiotics and compounds was determined using previously reported protocols. Additional antimicrobial evaluation against MRSA (ATCC 43300), Klebsiella pneumoniae (ATCC 700603), Acinetobacter baumannii (ATCC 19606), Candida albicans (ATCC 90028) and Cryptococcus neoformans (ATCC 208821) was undertaken at the Community for Open Antimicrobial Drug Discovery at The University of Queensland (Australia) according to their standard protocols, as reported previously.

Another series deals with MRSA (ATCC 43300). Briefly: Intrinsic antimicrobial activity (MIC) against MRSA. As to conditions: Staphylococcus aureus, MRSA ATCC 43300; mean (n = 2); read-out: MIC MRSA. Type of series: cell-based. On the procedure: as §1
The subject of series [2] is Pseudomonas aeruginosa (ATCC 27853). Briefly: Intrinsic antimicrobial activity (MIC) against P. aeruginosa. Type of series: cell-based. Conditions: ATCC27853, P. aeruginosa ATCC 27853, mean (n = 3), read-out: MIC P. a. On the procedure:
as §1

Series [3] relates to Escherichia coli (ATCC 25922). Put plainly: Intrinsic antimicrobial activity (MIC) against E. coli. Type of series: cell-based. As to conditions: ATCC25922, E. coli ATCC 25922, mean (n = 3), read-out: MIC E. c. On the procedure:
as §1

Series [4] concerns Candida albicans (ATCC 90028). Put plainly: Intrinsic antifungal activity (MIC) against C. albicans. Conditions: ATCC90028, C. albicans ATCC 90028, mean (n = 2), read-out: MIC C. a. Type of series: cell-based. On the procedure:
as §1

Series [5] concerns Cryptococcus neoformans (ATCC 208821). Briefly: Intrinsic antifungal activity (MIC) against C. neoformans. Type of series: cell-based. As to conditions: ATCC208821, C. neoformans ATCC 208821, mean (n = 2), read-out: MIC C. n. On the procedure:
as §1

A short description of the next series: Cytotoxicity assay. Type of series: cell-based. Conditions: human; HEK293 cells; mean (n = 2); read-out: Cytotoxicity: concentration of compound at 50% cytotoxicity (IC50). On the procedure:
Cytotoxicity assays were conducted using the protocols previously reported.

The next series deals with human red blood cells. Briefly: Hemolytic assay. Type of series: cell-based. As to conditions: mean (n = 2). On the procedure: Hemolysis assays were conducted using the protocols previously reported.
The next series relates to P. aeruginosa ATCC 27853. Briefly: Enhancement of doxycycline action against P. aeruginosa. Type of series: cell-based, Pseudomonas aeruginosa. Conditions: doxycycline at 4.5 µM. On the procedure:
(§2) Antibiotic enhancer concentrations were determined using previously reported protocols.

For another series, the system named is E. coli ATCC 25922. Put plainly: Enhancement of erythromycin action against E. coli. Type of series: cell-based, Escherichia coli. As to conditions: erythromycin at 10.9 µM. On the procedure: as §2

Consider `O=C(Cc1c[nH]c2c(F)cccc12)NCCCNCCCCCCCCCCNCCCNC(=O)Cc1c[nH]c2c(F)cccc12.O=C(O)C(F)(F)F.O=C(O)C(F)(F)F` [Compound 18e, N^1,N^10-Bis(3-(2-(7-fluoro-1H-indol-3-yl)acetamido)propyl)decane-1,10-diaminium 2,2,2-trifluoroacetate], for which the MIC in series [1] was 7.23 µM; in the series on MRSA (ATCC 43300), ≤ 0.29 µM; in series [2], > 231 µM; in series [3], 116 µM; in series [4], 2.31 µM; in series [5], ≤ 0.29 µM. Besides, the IC50 in “Cytotoxicity assay” is > 37 µM. Also, the “Hemolysis: concentration of compound at 10% hemolytic activity (HC10)” value (from here on “Hemolysis … at 10% hemolytic activity (HC10)”) with human red blood cells stood at 1.49 µM. The “Dox/P. a fold change (ratio between intrinsic MIC of the test compound and combination MIC)” value in the series with P. aeruginosa ATCC 27853 is recorded as 1 fold. Further, in the series on P. aeruginosa ATCC 27853, the “Dox/P. a: concentration required to restore doxycycline activity (combination MIC)” value (shortened to “Dox/P. a: concentration required”) is recorded as 231 µM. Moreover, in the series on E. coli ATCC 25922, the “Eryth/E. c: concentration required to restore erythromycin activity (combination MIC)” value (“Eryth/E. c: concentration required” below) is listed as 57.8 µM.
With `O=C(Cc1c[nH]c2c(F)cccc12)NCCCNCCCCCCCCCCCCNCCCNC(=O)Cc1c[nH]c2c(F)cccc12.O=C(O)C(F)(F)F.O=C(O)C(F)(F)F` [Compound 18f, N^1,N^12-Bis(3-(2-(7-fluoro-1H-indol-3-yl)acetamido)propyl)dodecane-1,12-diaminium 2,2,2-trifluoroacetate], the MIC was 7 µM in series [1]; ≤ 0.28 µM with MRSA (ATCC 43300); 224 µM in series [2]; 28 µM in [3]; ≤ 0.28 µM in series [4]; ≤ 0.28 µM in [5]. The IC50 in the series “Cytotoxicity assay” was determined as 27.2 µM. Further, the “Hemolysis … at 10% hemolytic activity (HC10)” value in the series on human red blood cells is ≤0.28 µM. For the same compound, the “Dox/P. a fold change (ratio between intrinsic MIC of the test compound and combination MIC)” value with P. aeruginosa ATCC 27853 is 1 fold. Also, in the series with P. aeruginosa ATCC 27853, the “Dox/P. a: concentration required” value worked out at 224 µM. The “Eryth/E. c: concentration required” value in the series on E. coli ATCC 25922 is on record as 14.0 µM.
In the case of `COc1cccc2c(CC(=O)NCCCNCCCCNCCCNC(=O)Cc3c[nH]c4c(OC)cccc34)c[nH]c12.O=C(O)C(F)(F)F.O=C(O)C(F)(F)F` [Compound 19a, N^1,N^4-Bis(3-(2-(7-methoxy-1H-indol-3-yl)acetamido)propyl)butane-1,4-diaminium 2,2,2-trifluoroacetate], the MIC was 124 µM in [1]; 19.9 µM in the series with MRSA (ATCC 43300); > 249 µM in series [2]; > 249 µM in series [3]; > 40 µM in series [4]; 19.9 µM in series [5]. The IC50 in the series “Cytotoxicity assay” is > 40 µM. The “Hemolysis … at 10% hemolytic activity (HC10)” value in the series with human red blood cells is given as >40 µM. In the series with P. aeruginosa ATCC 27853, the “Dox/P. a fold change (ratio between intrinsic MIC of the test compound and combination MIC)” value is 1 fold. In addition, the “Dox/P. a: concentration required” value with P. aeruginosa ATCC 27853 was > 249 µM. In the series with E. coli ATCC 25922, the “Eryth/E. c: concentration required” value was > 249 µM.
For `COc1cccc2c(CC(=O)NCCCNCCCCCCCCNCCCNC(=O)Cc3c[nH]c4c(OC)cccc34)c[nH]c12.O=C(O)C(F)(F)F.O=C(O)C(F)(F)F` [Compound 19d, N^1,N^8-Bis(3-(2-(7-methoxy-1H-indol-3-yl)acetamido)propyl)octane-1,8-diaminium 2,2,2-trifluoroacetate], the MIC was 116 µM in series [1]; 37.2 µM in the series on MRSA (ATCC 43300); > 232 µM in series [2]; > 232 µM in series [3]; > 37 µM in series [4]; ≤ 0.29 µM in series [5]. In addition, the IC50 in “Cytotoxicity assay” was > 37 µM. In the series with human red blood cells, the “Hemolysis … at 10% hemolytic activity (HC10)” value is >37 µM. Moreover, in the series on P. aeruginosa ATCC 27853, the “Dox/P. a fold change (ratio between intrinsic MIC of the test compound and combination MIC)” value was 1 fold. Besides, in the series on P. aeruginosa ATCC 27853, the “Dox/P. a: concentration required” value is recorded as > 232 µM. In addition, in the series with E. coli ATCC 25922, the “Eryth/E. c: concentration required” value is > 232 µM.
Regarding `COc1cccc2c(CC(=O)NCCCNCCCCCCCCCCCCNCCCNC(=O)Cc3c[nH]c4c(OC)cccc34)c[nH]c12.O=C(O)C(F)(F)F.O=C(O)C(F)(F)F` [Compound 19f, N^1,N^12-Bis(3-(2-(7-methoxy-1H-indol-3-yl)acetamido)propyl)dodecane-1,12-diaminium 2,2,2-trifluoroacetate], the MIC in series [1] was 13.6 µM; with MRSA (ATCC 43300), ≤ 0.27 µM; in series [2] it was > 218 µM; in series [3], 109 µM; in series [4], 34.9 µM; in series [5] it was ≤ 0.27 µM. Also, in the series “Cytotoxicity assay”, the IC50 is > 35 µM. For the same compound, in the series on human red blood cells, the “Hemolysis … at 10% hemolytic activity (HC10)” value was determined as 10.7 µM. Moreover, in the series on P. aeruginosa ATCC 27853, the “Dox/P. a fold change (ratio between intrinsic MIC of the test compound and combination MIC)” value is on record as > 1 fold. Further, the “Dox/P. a: concentration required” value with P. aeruginosa ATCC 27853 came out at 218 µM. For the same compound, the “Eryth/E. c: concentration required” value in the series on E. coli ATCC 25922 turned out to be 109 µM.
Regarding `Cc1cccc2c(CC(=O)NCCCNCCCCNCCCNC(=O)Cc3c[nH]c4c(C)cccc34)c[nH]c12.O=C(O)C(F)(F)F.O=C(O)C(F)(F)F` [Compound 20a, N^1,N^4-Bis(3-(2-(7-methyl-1H-indol-3-yl)acetamido)propyl)butane-1,4-diaminium 2,2,2-trifluoroacetate], the MIC was 32.3 µM in series [1]; ≤ 0.32 µM in the series with MRSA (ATCC 43300); > 259 µM in series [2]; 259 µM in series [3]; 41.4 µM in series [4]; ≤ 0.32 µM in series [5]. Moreover, the IC50 in “Cytotoxicity assay” was > 41 µM. Further, in the series on human red blood cells, the “Hemolysis … at 10% hemolytic activity (HC10)” value worked out at 4.11 µM. Moreover, in the series with P. aeruginosa ATCC 27853, the “Dox/P. a fold change (ratio between intrinsic MIC of the test compound and combination MIC)” value is given as 1 fold. Also, the “Dox/P. a: concentration required” value in the series with P. aeruginosa ATCC 27853 is given as > 259 µM. The “Eryth/E. c: concentration required” value in the series on E. coli ATCC 25922 was determined as 64.7 µM.
As to `Cc1cccc2c(CC(=O)NCCCNCCCCCCNCCCNC(=O)Cc3c[nH]c4c(C)cccc34)c[nH]c12.O=C(O)C(F)(F)F.O=C(O)C(F)(F)F` [Compound 20b, N^1,N^6-Bis(3-(2-(7-methyl-1H-indol-3-yl)acetamido)propyl)hexane-1,6-diaminium 2,2,2-trifluoroacetate], the MIC in series [1] is 62.4 µM; in the series with MRSA (ATCC 43300) it was ≤ 0.31 µM; in series [2], > 250 µM; in series [3] it was 250 µM; in series [4] it was 40 µM; in [5] it was ≤ 0.31 µM. Also, the IC50 in “Cytotoxicity assay” was > 40 µM. For the same compound, in the series with human red blood cells, the “Hemolysis … at 10% hemolytic activity (HC10)” value is on record as 9.24 µM. Besides, the “Dox/P. a fold change (ratio between intrinsic MIC of the test compound and combination MIC)” value in the series with P. aeruginosa ATCC 27853 is recorded as > 1 fold. Also, the “Dox/P. a: concentration required” value in the series on P. aeruginosa ATCC 27853 is reported as 250 µM. In addition, the “Eryth/E. c: concentration required” value in the series on E. coli ATCC 25922 worked out at 62.4 µM.
As to `Cc1cccc2c(CC(=O)NCCCNCCCCCCCCCCNCCCNC(=O)Cc3c[nH]c4c(C)cccc34)c[nH]c12.O=C(O)C(F)(F)F.O=C(O)C(F)(F)F` [Compound 20e, N^1,N^10-Bis(3-(2-(7-methyl-1H-indol-3-yl)acetamido)propyl)decane-1,10-diaminium 2,2,2-trifluoroacetate], the MIC in [1] is 233 µM; with MRSA (ATCC 43300), ≤ 0.29 µM; in series [2] it was > 233 µM; in [3], > 233 µM; in series [4] it was 18.7 µM; in series [5], ≤ 0.29 µM. Moreover, the IC50 in the series “Cytotoxicity assay” is > 37 µM. Besides, in the series on human red blood cells, the “Hemolysis … at 10% hemolytic activity (HC10)” value amounted to 12.7 µM. In addition, in the series on P. aeruginosa ATCC 27853, the “Dox/P. a fold change (ratio between intrinsic MIC of the test compound and combination MIC)” value is on record as 1 fold. The “Dox/P. a: concentration required” value in the series on P. aeruginosa ATCC 27853 is given as > 233 µM. Also, the “Eryth/E. c: concentration required” value in the series with E. coli ATCC 25922 is > 233 µM.
Regarding `Cc1cccc2c(CC(=O)NCCCNCCCCCCCCCCCCNCCCNC(=O)Cc3c[nH]c4c(C)cccc34)c[nH]c12.O=C(O)C(F)(F)F.O=C(O)C(F)(F)F` [Compound 20f, N^1,N^12-Bis(3-(2-(7-methyl-1H-indol-3-yl)acetamido)propyl)dodecane-1,12-diaminium 2,2,2-trifluoroacetate], the MIC is 28.2 µM in series [1]; ≤ 0.28 µM with MRSA (ATCC 43300); > 226 µM in series [2]; 56.5 µM in series [3]; ≤ 0.28 µM in [4]; ≤ 0.28 µM in series [5]. In “Cytotoxicity assay”, the IC50 is > 36 µM. Further, the “Hemolysis … at 10% hemolytic activity (HC10)” value in the series on human red blood cells was ≤0.28 µM. Besides, the “Dox/P. a fold change (ratio between intrinsic MIC of the test compound and combination MIC)” value in the series with P. aeruginosa ATCC 27853 was 1 fold. Further, the “Dox/P. a: concentration required” value in the series on P. aeruginosa ATCC 27853 is reported as > 226 µM. For the same compound, in the series with E. coli ATCC 25922, the “Eryth/E. c: concentration required” value came to 28.2 µM.
